Test results reported in patent US7601494B2, “Method of screening candidate compounds for susceptibility to biliary excretion” (The University of North Carolina at Chapel Hill, priority 1999, dated 2009).

Columns and labels:
[1] = tested on: short-term cultured hepatocytes; assay: Cumulative uptake in 3-hr (short-term) cultured hepatocyte monolayers, standard vs Ca2+-free buffer; format: in vitro ADME, rat; settings: 3-hr cultured hepatocytes
Experimental: Hepatocytes were isolated with a two-step perfusion method. Briefly, rats were anesthetized with ketamine and xylazine (60 and 12mg/kg i.p., respectively) prior to portal vein cannulation. The liver was perfused in situ with oxygenated Ca^2+-free Krebs-Henseleit bicarbonate buffer containing collagenase type 1 (0.5 mg/ml) for 10 min. The hepatic capsule was removed with forceps. The hepatocytes were released by shaking the liver gently in 100 ml DMEM.
The released cells were filtered through a sterile nylon mesh (70-μm). The hepatocyte suspensions were centrifuged at 50 xg for 3 min. The cell pellet was resuspended in 25 ml DMEM and an equal volume of 90% isotonic polyvinylpyrrolidone-coated silica colloid centrifugation medium (pH 7.4) sold under the registered trademark PERCOLL® by Pharmacia, Inc. of Piscataway, N.J. The resulting cell suspension was centrifuged at about 70 to about 150 xg for 5 min. The pellet was resuspended in 50 ml DMEM and the cell suspensions were combined into one tube followed by centrifugation at 50 xg for 3 min. Hepatocyte viability was determined by trypan blue exclusion. Only those hepatocyte preparations with viability greater than 90% were utilized for further studies.
Hepatocyte suspensions were prepared with DMEM containing 5% fetal calf serum, 1 μM dexamethasone and 4 mg/L insulin. Hepatocyte suspensions were added to the precoated dishes at a density of about 2-3×10^6 cells/60-mm dish. Approximately 1 hr after plating the cells, the medium was aspirated and 3-ml fresh DMEM was added. For transport studies, hepatocytes that had been seeded for 3-5 hr without collagen overlay were defined as 3-hr or short-term cultured hepatocytes.
(§1) Hepatocytes cultured in a collagen-sandwich configuration were incubated in 3 ml standard buffer or Ca^2+-free buffer at 37° C. for 10 min. After removing the incubation buffer, uptake was initiated by addition of 3 ml standard buffer containing substrate to each dish. After incubation for designated times, cumulative uptake was terminated by aspirating the incubation solution and rinsing 4 times with 3 ml ice-cold standard buffer to remove extracellular substrate. After washing, 2 ml of 1% Triton X-100 solution was added to culture dishes, and the cells were lysed by shaking the dish on a shaker for 20 min at room temperature. An aliquot (1 ml) of lysate was analyzed by liquid scintillation spectrometry. Bio-Rad DC Protein Assay Kit (Bio-Rad Laboratories, Hercules, Calif.) was used to determine the protein concentration in the culture extracts using bovine serum albumin as standard. […] All values for substrate uptake into cell monolayers were corrected for nonspecific binding to the collagen by subtracting the substrate uptake determined in the appropriate control dishes in the absence of cells as described previously.
(§2) Uptake data were normalized to the protein content and expressed as mean±SD from 3-4 separate preparations of hepatocytes. Statistical differences between mean values for the 10-min cumulative substrate uptake in the presence and absence of Ca^2+ were determined by the use of the well-known Student's t-test. A P value of <0.05 was considered significant.

[2] = tested on: sandwich-cultured hepatocytes; assay: Cumulative uptake, Biliary Excretion Index and in vitro biliary clearance in 96-hr sandwich-cultured hepatocytes; format: in vitro ADME, rat
Experimental: To prepare sandwich-cultured hepatocytes, neutralized collagen solution (0.1 ml, about 1.5 to about 3.0 mg/ml, pH 7.4) was added to the monolayers 24 hr after the cells were seeded. […] Medium was changed on a daily basis until the fourth day after the cells were seeded. These hepatocytes were referred to as 96-hr or long-term cultured hepatocytes.
as §1, §2
Biliary excretion of substrates in the monolayers was quantitatively assessed by the Biliary Excretion Index based on Equation 3:
[formula] where Uptakestandard and Uptake Ca^2+-free represent the cumulative uptake of substrate over a 10-min interval in the hepatocyte monolayers pre-incubated in standard buffer and in Ca^2+-free buffer, respectively.
Biliary clearance in the sandwich-cultured hepatocytes, ClB(culture) (ml/min/kg per body weight), was calculated according to Equation 4:
[formula] where Timeincubation was 10 min and Concentrationmedium represented the initial substrate concentration in the incubation medium. In some embodiments, a biliary clearance value can be calculated as the ratio of the mass in the bile canaliculi and the area under the curve (AUC) in culture medium, wherein the AUC represents the integral of candidate compound (e.g. xenobiotic concentration) in the medium from time 0 to time T (time can be measure in any desired units, and is usually measured in minutes). Indeed, the term AUC can refer to the following equation: […]

[3] = Biliary excretion in bile duct cannulated rats after administration of [14C]264W94 / [14C]2169W94; format: in vivo, rat
Experimental: Male Wistar rats (250-280 g) from Charles River Laboratory (Raleigh, N.C.) were used as liver donors. Rats were housed individually in stainless-steel cages in a constant alternating 12-hr light and dark cycle at least 1 week before the study was performed, and were fed ad libitum until use. Bile duct cannulated rats (200-250 g) were obtained from Charles River (Raleigh, N.C.). The Institutional Animal Care and Use Committee at the University of North Carolina at Chapel Hill, Chapel Hill, N.C., approved all procedures.
[^14C]264W94 was formulated as a solution in a mixture of sterile water/polypropylene glycol 400/ethanol (2:1:1 v/v/v) at a concentration of 0.125 mg/mL. Following collection of pre-dose bile, [^14C]264W94 solution was administrated by caudal vein injection (0.1 mg/kg). For the 2169W94 studies, [^14C]2169W94 was prepared as a suspension at a concentration of 0.1 mg/mL in 0.5% (w/v) methylcellulose in water. Following collection of pre-dose bile, [^14C]2169W94 suspension was administrated by gavage (1.0 mg/kg). All rats were placed into individual plastic metabolism cages that allowed the rats unrestrained movement. Bile was collected into polypropylene containers surrounded by ice. For the 264W94 studies, the bile container was changed at 8 and 24 hours after the dose. […] Bile samples were stored at −20° C. until analysis.
Aliquots of cell lysate or bile samples containing 264W94 or 2169W94 were mixed with 2-fold volumes of ice-chilled acetonitrile, and centrifuged to remove precipitated proteins. The supernatant was evaporated under nitrogen at room temperature, and reconstituted in 100 μL of a 70/30 mixture of 50 mM ammonium acetate/acetonitrile/trifluoroacetic acid (95:5:0.1 v:v:v) and acetonitrile. […]
Radiocarbon that eluted from the HPLC was quantified with an on-line radioactivity detector (RADIOMATIC FLO-ONE/BETA™ Radio-Chromatography Detector Series 500 TR Series, Packard Instrument Co.). […] The concentration of the three components was determined by normalizing the eluted radioactivity in each peak to the total injected radioactivity.

[4] = tested on: sandwich-cultured hepatocytes; assay: HPLC analysis of 10-min cell lysate of 96-hr sandwich-cultured hepatocytes; format: in vitro ADME, rat; settings: 96-hr hepatocytes incubated with 3 μM [14C]264W94, 10 min
Experimental: Aliquots of cell lysate or bile samples containing 264W94 or 2169W94 were mixed with 2-fold volumes of ice-chilled acetonitrile, and centrifuged to remove precipitated proteins. The supernatant was evaporated under nitrogen at room temperature, and reconstituted in 100 μL of a 70/30 mixture of 50 mM ammonium acetate/acetonitrile/trifluoroacetic acid (95:5:0.1 v:v:v) and acetonitrile. The sample extracts were injected onto a WATERS™ […]™ C18 column (3.9×150 mm) and eluted by a 85/15 mixture of 50 mM ammonium acetate (pH 4.0) and acetonitrile; the percentage of acetonitrile was increased by a WATERS™ 600E System Controller to 55% over a period of 20 minutes, and then to 100% during the next 10 minutes.
Radiocarbon that eluted from the HPLC was quantified with an on-line radioactivity detector (RADIOMATIC FLO-ONE/BETA™ Radio-Chromatography Detector Series 500 TR Series, Packard Instrument Co.). The peaks of 264W94, 2169W94, and 2169W94 glucuronide were identified by comparing with purified standard compound. Under these conditions, baseline separation of these three components was achieved. The concentration of the three components was determined by normalizing the eluted radioactivity in each peak to the total injected radioactivity. […]

[5] = tested on: hepatic cytochrome p450 isozymes; settings: Silver et al. 1996; cited from earlier work

cumulative uptake in standard buffer compared to Ca2+-free buffer [1]: similar
cumulative uptake in standard buffer compared to Ca2+-free buffer ([2]; 96-hr cultured hepatocytes): not significantly different
biliary excretion in long-term sandwich-cultured hepatocytes (in words) ([2]; 96-hr sandwich-cultured hepatocytes): lack of biliary excretion
biliary excretion in rats (in words) ([3]; in vivo): negligible biliary excretion
detection in bile in 24 hr ([3]; rats, i.v. [14C]264W94 0.24 μmol/kg): neither 264W94 nor 2169W94 was detected
total administered radioactivity recovered in bile ([3]; rats, oral administration 2.4 μmol/kg, in 8 hr, n=2): 66.4%
share of total radioactivity in cell lysate [4]: 73.0%
SMILES: CCCC[C@]1(CC)CS(=O)(=O)c2cc(OC)c(OC)cc2[C@@H](c2ccccc2)N1 [264W94, (3R, 5R)-3-butyl-3-ethyl-2,3,4,5-tetrahydro-7,8-dimethoxy-5-phenyl-1,4-benzothiazepine-1,1-dioxide]
cytochrome p450 isozyme primarily involved in the metabolism [5]: CYP3A4
